Experiments:
Assay type in all cases: cell-based, Aspergillus niger
[1] = test system: gfaA; experiment: Northern blot analysis of gfaA expression in CFW stressed germlings; conditions: germlings treated with 200 μg/ml CFW; RNA 1, 2 and 4 hours after addition; vs untreated germlings
Method: (§1) To identify genes that are induced upon cell wall stress, we have first investigated which cell wall perturbing compound was suited for this purpose. Finally, we used the antifungal compound Calcofluor White (CFW) to induce cell wall stress. […] Because of the defects in cell wall assembly, the cell wall is weakened en swells from internal pressure. Polarized growth is resumed after 2-4 hours. Both the effect of hyphal tip swelling and the time that is required to resume growth are dependent on the concentration of CFW (FIG. 3). To identify genes that are induced upon CFW treatment, mRNA has been isolated from germling that have been treated with or without CFW for various time intervals. […] These germlings were than treated with 200 μg/ml CFW. After 1, 2 and 4 hours after addition of CFW total RNA was isolated and used in Northern blot experiments (see FIG. 4). As a control, total RNA was isolated from germlings that were not treated with CFW. Several probes encoding putative proteins involved in cell wall biosynthesis have been analysed and quantified.
(§2) The highest induction was found for agsA. Thus, these genes are regulated by the promoter sequences as a response to the induced cell wall stress. Such promoters are suitable candidates for use as reporters. […] No signal could be detected for the other ags homologs.

[2] = test system: germinated spores of A. niger; experiment: Effect of CFW addition on growth of germlings
Method: FIG. 3: Effect of CFW addition on growth of germlings. Germinated spores of A. niger were treated with increasing concentrations of CFW. Both the extend of hyphal tip swelling and the time required to resume growth is dependent on the concentration of CFW.
as §1

[3] = test system: agsA promoter; experiment: PagsA-AmdS reporter strain growth on acetamide plates; conditions: 0.5 mg/ml CFW added to the plates
Description: Aspergillus niger grows poorly on acetamide as a nitrogen source. When additional copies of the amdS gene, encoding a acetamidase of A. nidulans are introduced, A. niger can grown on acetamide plates and the amdS gene can therefore be used as a selectable marker (Kelly and Hynes, 1985). The coding region of the amdS gene was fused to the agsA promoter sequence. Both the relatively low basal expression of the agsA gene and the high level of induction after CFW stress (over 20-fold) makes the agsA promoter a good candidate for use as a reporter. The reporter construct further comprises the amdS gene (A. nidulans) with its own terminator. For targeting to the pyrG locus of the A. niger strain AB4.1 (pyrG^−) the pyrG* gene is included in the construct (cf. Van Gorcum et al., 1988). […]
The construct was transformed to strain AB4.1 (a pyrG negative strain derived from N402) and transformants were selected on the presence of an intact pyrG gene. Wild type strain N402 and purified transformants (ABRD1.1-1.25 and ABRD2.1-2.15) were analysed were grown on acetamide and acrylamide plates. […] The majority of the transformants were analysed by Southern blotting to confirm correct integration of the construct.

[4] = test system: fksA; experiment: Northern blot analysis of fksA expression in CFW stressed germlings; conditions: in the presence of CFW (200 μg/ml)
Method: as §1, §2

O=S(=O)(O)c1cc(Nc2nc(Nc3ccccc3)nc(N(CCO)CCO)n2)ccc1/C=C/c1ccc(Nc2nc(Nc3ccccc3)nc(N(CCO)CCO)n2)cc1S(=O)(=O)O [CFW, Calcofluor White]
increase in gfaA mRNA level [1]: 4 fold | time until polarized growth is resumed ([2]; after CFW treatment, dependent on CFW concentration): 2 to 4 h | hyphal morphology of germinating spores ([2]; treatment of germinating spores with CFW, concentration dependent): formation of swollen hyphe | growth of PagsA-AmdS transformants on acetamide plates [3]: resulted in growth (and sporulation) for the majority of the transformants | expression level of fksA [4]: not significantly altered
